Columns and labels:
JAK3 = target: T1, JAK3 (Homo sapiens, UniProt P52333); assay: Kinobeads assay, JAK3; assay type: binding; settings: mixed Molt4/Ramos cell lysate, dot blot detection
T1 construct: endogenous in cells; host or cells: Mixed Molt4/Ramos lysate (1:2)
T1 sequence (P52333 1-1124): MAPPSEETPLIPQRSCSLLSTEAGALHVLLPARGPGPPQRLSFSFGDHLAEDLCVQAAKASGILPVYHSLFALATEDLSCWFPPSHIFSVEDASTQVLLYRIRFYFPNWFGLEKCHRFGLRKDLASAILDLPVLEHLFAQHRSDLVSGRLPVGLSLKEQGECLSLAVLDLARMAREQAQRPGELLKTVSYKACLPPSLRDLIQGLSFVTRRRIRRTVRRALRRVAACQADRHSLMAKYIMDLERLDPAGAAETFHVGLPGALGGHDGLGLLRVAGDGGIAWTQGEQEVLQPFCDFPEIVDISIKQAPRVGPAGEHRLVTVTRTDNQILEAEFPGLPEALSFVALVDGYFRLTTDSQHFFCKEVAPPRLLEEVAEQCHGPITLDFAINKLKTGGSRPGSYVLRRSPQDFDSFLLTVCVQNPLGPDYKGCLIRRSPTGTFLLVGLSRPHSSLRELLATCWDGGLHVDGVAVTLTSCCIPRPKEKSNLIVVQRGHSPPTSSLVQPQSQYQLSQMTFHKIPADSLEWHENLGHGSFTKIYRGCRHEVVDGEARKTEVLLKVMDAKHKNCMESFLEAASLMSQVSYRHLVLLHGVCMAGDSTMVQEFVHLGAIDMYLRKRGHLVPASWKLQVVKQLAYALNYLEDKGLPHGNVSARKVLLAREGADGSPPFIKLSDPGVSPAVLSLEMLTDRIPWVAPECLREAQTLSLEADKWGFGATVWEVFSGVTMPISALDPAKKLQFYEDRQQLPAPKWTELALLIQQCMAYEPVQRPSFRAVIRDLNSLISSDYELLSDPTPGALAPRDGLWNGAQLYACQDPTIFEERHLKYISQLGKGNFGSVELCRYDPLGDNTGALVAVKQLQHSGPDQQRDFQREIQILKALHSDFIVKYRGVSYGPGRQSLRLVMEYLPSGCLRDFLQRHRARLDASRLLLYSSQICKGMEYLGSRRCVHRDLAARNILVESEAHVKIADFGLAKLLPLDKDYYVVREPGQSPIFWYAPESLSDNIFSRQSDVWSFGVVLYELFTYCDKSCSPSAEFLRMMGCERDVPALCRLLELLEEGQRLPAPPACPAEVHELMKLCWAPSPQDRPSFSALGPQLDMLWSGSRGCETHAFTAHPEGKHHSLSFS
Method in brief: (§1)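 Competition pulldown: compound dilution series incubated 3 h in cold room with immobilized aminopyrido-pyrimidine beads and mixed Molt4/Ramos lysate (1:2, 10 mg/mL protein) in DP buffer pH 7.4 with NP40. Bead-bound JAK2/JAK3 eluted, quantified by antibody dot blot with infrared detection; IC50 from dose-response curves.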

JAK2 = target: T2, JAK2 (Homo sapiens, UniProt O60674); assay: Kinobeads assay, JAK2; assay type: binding; settings: mixed Molt4/Ramos cell lysate, dot blot detection
T2 construct: endogenous in cells; host or cells: Mixed Molt4/Ramos lysate (1:2)
T2 sequence (O60674 whole entry): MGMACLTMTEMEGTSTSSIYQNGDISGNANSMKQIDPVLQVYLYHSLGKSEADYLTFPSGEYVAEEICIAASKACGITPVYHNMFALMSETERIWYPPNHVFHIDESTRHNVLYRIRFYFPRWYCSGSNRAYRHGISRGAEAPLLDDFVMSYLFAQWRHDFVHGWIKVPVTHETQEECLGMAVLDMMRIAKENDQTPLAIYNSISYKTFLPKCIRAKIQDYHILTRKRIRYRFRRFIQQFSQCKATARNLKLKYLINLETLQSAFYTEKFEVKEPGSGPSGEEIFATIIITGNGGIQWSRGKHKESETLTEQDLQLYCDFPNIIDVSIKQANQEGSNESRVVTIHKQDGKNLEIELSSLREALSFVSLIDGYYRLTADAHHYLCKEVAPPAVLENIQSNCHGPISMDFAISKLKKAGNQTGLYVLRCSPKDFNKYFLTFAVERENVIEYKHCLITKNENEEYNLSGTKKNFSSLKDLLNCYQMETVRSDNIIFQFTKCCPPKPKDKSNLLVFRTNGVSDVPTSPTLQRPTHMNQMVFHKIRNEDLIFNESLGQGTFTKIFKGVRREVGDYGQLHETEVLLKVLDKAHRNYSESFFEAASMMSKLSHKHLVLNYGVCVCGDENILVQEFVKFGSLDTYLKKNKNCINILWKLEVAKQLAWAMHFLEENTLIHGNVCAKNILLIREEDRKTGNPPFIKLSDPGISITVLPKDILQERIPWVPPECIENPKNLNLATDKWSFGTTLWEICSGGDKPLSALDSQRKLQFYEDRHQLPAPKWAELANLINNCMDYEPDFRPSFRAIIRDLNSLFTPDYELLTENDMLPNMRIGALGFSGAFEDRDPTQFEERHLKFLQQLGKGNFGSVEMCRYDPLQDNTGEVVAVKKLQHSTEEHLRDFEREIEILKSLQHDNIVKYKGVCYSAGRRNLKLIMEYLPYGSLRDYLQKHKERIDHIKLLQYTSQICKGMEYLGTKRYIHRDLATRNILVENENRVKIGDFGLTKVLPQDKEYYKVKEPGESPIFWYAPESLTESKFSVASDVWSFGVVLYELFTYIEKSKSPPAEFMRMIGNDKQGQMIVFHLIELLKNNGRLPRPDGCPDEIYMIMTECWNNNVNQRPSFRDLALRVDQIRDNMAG
Method in brief: as §1

SMILES | IC50 (JAK3) [µM] | IC50 (JAK2) [µM]
Cn1cc(Nc2ncc3cnn(Cc4cccc(NS(C)(=O)=O)c4)c3n2)cn1 [Example 140, N-(3-((6-((1-Methyl-1H-pyrazol-4-yl)amino)-1H-pyrazolo[3,4-d]pyrimidin-1-yl)methyl)phenyl)methanesulfonamide] | < 0.1 | 1 to 10
CC(C)S(=O)(=O)Nc1cccc(Cn2ncc3cnc(Nc4cnn(C)c4)nc32)c1 [Example 141, N-(3-((6-((1-Methyl-1H-pyrazol-4-yl)amino)-1H-pyrazolo[3,4-d]pyrimidin-1-yl)methyl)phenyl)propane-2-sulfonamide] | 0.1 to 1 | ≥ 10
Cn1cc(Nc2ncc3cnn(Cc4c(F)cccc4NS(C)(=O)=O)c3n2)cn1 [Example 142] | < 0.1 | 0.1 to 1
Fc1ccccc1Cn1ncc2cnc(Nc3cnn(CCN4CCCCC4)c3)nc21 [Example 143, 1-(2-Fluorobenzyl)-N-(1-(2-(piperidin-1-yl)ethyl)-1H-pyrazol-4-yl)-1H-pyrazolo[3,4-d]pyrimidin-6-amine] | < 0.1 | 1 to 10
Fc1ccccc1Cn1ncc2cnc(Nc3cnn(CCCN4CCCCC4)c3)nc21 [Example 144, 1-(2-Fluorobenzyl)-N-(1-(3-(piperidin-1-yl)propyl)-1H-pyrazol-4-yl)-1H-pyrazolo[3,4-d]pyrimidin-6-amine] | < 0.1 | 0.1 to 1
Fc1ccccc1Cn1ncc2cnc(Nc3cnn(CCCN4CCOCC4)c3)nc21 [Example 145, 1-(2-Fluorobenzyl)-N-(1-(3-morpholinopropyl)-1H-pyrazol-4-yl)-1H-pyrazolo[3,4-d]pyrimidin-6-amine] | < 0.1 | 0.1 to 1
Cn1cc(Nc2ncc3cnn(-c4cccc(C(=O)N5CCOCC5)c4)c3n2)cn1 [Example 146, (3-(6-((1-Methyl-1H-pyrazol-4-yl)amino)-1H-pyrazolo[3,4-d]pyrimidin-1-yl)phenyl)(morpholino)methanone] | 0.1 to 1 | 1 to 10
Cn1cc(Nc2ncc3cnn(-c4cccc(C(=O)NCCO)c4)c3n2)cn1 [Example 147, N-(2-Hydroxyethyl)-3-(6-((1-methyl-1H-pyrazol-4-yl)amino)-1H-pyrazolo[3,4-d]pyrimidin-1-yl)benzamide] | 0.1 to 1 | ≥ 10
Cn1cc(Nc2ncc3cnn(-c4ccc(C(=O)NCCO)cc4)c3n2)cn1 [Example 148, N-(2-Hydroxyethyl)-4-(6-((1-methyl-1H-pyrazol-4-yl)amino)-1H-pyrazolo[3,4-d]pyrimidin-1-yl)benzamide] | 0.1 to 1 | 1 to 10
CN1CCN(C(=O)c2ccc(-n3ncc4cnc(Nc5cnn(C)c5)nc43)cc2)CC1 [Example 149, (4-(6-((1-Methyl-1H-pyrazol-4-yl)amino)-1H-pyrazolo[3,4-d]pyrimidin-1-yl)phenyl)(4-methylpiperazin-1-yl)methanone] | 0.1 to 1 | 1 to 10
Cc1nn(CC(F)F)cc1Nc1ncc2cnn(Cc3cc(F)ccc3F)c2n1 [Example 150, 1-(2,5-Difluorobenzyl)-N-(1-(2,2-difluoroethyl)-3-methyl-1H-pyrazol-4-yl)-1H-pyrazolo[3,4-d]pyrimidin-6-amine] | < 0.1 | 1 to 10
Cc1nn(CC(F)F)cc1Nc1ncc2cnn(Cc3cc(F)ccc3C#N)c2n1 [Example 151, 2-((6-((1-(2,2-Difluoroethyl)-3-methyl-1H-pyrazol-4-yl)amino)-1H-pyrazolo[3,4-d]pyrimidin-1-yl)methyl)-4-fluorobenzonitrile] | < 0.1 | 0.1 to 1
COc1nn(CC(F)F)cc1Nc1ncc2cnn(Cc3cc(F)ccc3F)c2n1 [Example 152, 1-(2,5-Difluorobenzyl)-N-(1-(2,2-difluoroethyl)-3-methoxy-1H-pyrazol-4-yl)-1H-pyrazolo[3,4-d]pyrimidin-6-amine] | < 0.1 | 1 to 10
COc1nn(CC(F)F)cc1Nc1ncc2cnn(Cc3cc(F)ccc3C#N)c2n1 [Example 153, 2-((6-((1-(2,2-Difluoroethyl)-3-methoxy-1H-pyrazol-4-yl)amino)-1H-pyrazolo[3,4-d]pyrimidin-1-yl)methyl)-4-fluorobenzonitrile] | < 0.1 | 0.1 to 1
Cc1c(F)cccc1Cn1ncc2cnc(Nc3cnn(CC(F)F)c3)nc21 [Example 154, N-(1-(2,2-Difluoroethyl)-1H-pyrazol-4-yl)-1-(3-fluoro-2-methylbenzyl)-1H-pyrazolo[3,4-d]pyrimidin-6-amine] | 0.1 to 1 | 1 to 10
Fc1cccc(Cn2ncc3cnc(Nc4cnn(CC(F)F)c4)nc32)c1F [Example 155, 1-(2,3-Difluorobenzyl)-N-(1-(2,2-difluoroethyl)-1H-pyrazol-4-yl)-1H-pyrazolo[3,4-d]pyrimidin-6-amine] | < 0.1 | 1 to 10
Fc1c(Cl)cccc1Cn1ncc2cnc(Nc3cnn(CC(F)F)c3)nc21 [Example 156, 1-(3-Chloro-2-fluorobenzyl)-N-(1-(2,2-difluoroethyl)-1H-pyrazol-4-yl)-1H-pyrazolo[3,4-d]pyrimidin-6-amine] | 0.1 to 1 | 1 to 10
Fc1ccc(F)c(Cn2ncc3cnc(Nc4cnn(CC(F)F)c4)nc32)c1F [Example 157, N-(1-(2,2-Difluoroethyl)-1H-pyrazol-4-yl)-1-(2,3,6-trifluorobenzyl)-1H-pyrazolo[3,4-d]pyrimidin-6-amine] | < 0.1 | 0.1 to 1
Cn1cc(Nc2ncc3cnn(Cc4cc(F)cc(F)c4F)c3n2)cn1 [Example 158, N-(1-Methyl-1H-pyrazol-4-yl)-1-(2,3,5-trifluorobenzyl)-1H-pyrazolo[3,4-d]pyrimidin-6-amine] | < 0.1 | < 0.1
COc1ccc(F)c(Cn2ncc3cnc(Nc4cnn(C)c4)nc32)c1F [Example 159, 1-(2,6-Difluoro-3-methoxybenzyl)-N-(1-methyl-1H-pyrazol-4-yl)-1H-pyrazolo[3,4-d]pyrimidin-6-amine] | < 0.1 | 1 to 10
Fc1cccc(F)c1Cn1ncc2cnc(Nc3cnn(CC(F)F)c3)nc21 [Example 160, 1-(2,6-Difluorobenzyl)-N-(1-(2,2-difluoroethyl)-1H-pyrazol-4-yl)-1H-pyrazolo[3,4-d]pyrimidin-6-amine] | < 0.1 | 1 to 10
FC(F)Cn1cc(Nc2ncc3cnn(Cc4ccccc4C4CC4)c3n2)cn1 [Example 161, 1-(2-Cyclopropylbenzyl)-N-(1-(2,2-difluoroethyl)-1H-pyrazol-4-yl)-1H-pyrazolo[3,4-d]pyrimidin-6-amine] | 0.1 to 1 | 1 to 10
Cn1cc(Nc2ncc3cnn(Cc4c(F)c(F)cc(F)c4F)c3n2)cn1 [Example 163, N-(1-Methyl-1H-pyrazol-4-yl)-1-(2,3,5,6-tetrafluorobenzyl)-1H-pyrazolo[3,4-d]pyrimidin-6-amine] | < 0.1 | 0.1 to 1
Cn1cc(Nc2ncc3cnn(Cc4c(F)cccc4C(F)(F)F)c3n2)cn1 [Example 164, 1-(2-Fluoro-6-(trifluoromethyl)benzyl)-N-(1-methyl-1H-pyrazol-4-yl)-1H-pyrazolo[3,4-d]pyrimidin-6-amine] | < 0.1 | 1 to 10
Fc1ccccc1Cn1ncc2cnc(Nc3cnn(CCC4CCOCC4)c3)nc21 [Example 165, 1-(2-Fluorobenzyl)-N-(1-(2-(tetrahydro-2H-pyran-4-yl)ethyl)-1H-pyrazol-4-yl)-1H-pyrazolo[3,4-d]pyrimidin-6-amine] | < 0.1 | 1 to 10
Cn1cc(Nc2ncc3cnn(Cc4cccc(OCCO)c4)c3n2)cn1 [Example 166, 2-(3-((6-((1-Methyl-1H-pyrazol-4-yl)amino)-1H-pyrazolo[3,4-d]pyrimidin-1-yl)methyl)phenoxy)ethanol] | < 0.1 | 1 to 10
Cn1cc(Nc2ncc3cnn(Cc4cccc(OCCN5CCCCC5)c4)c3n2)cn1 [Example 167, N-(1-Methyl-1H-pyrazol-4-yl)-1-(3-(2-(piperidin-1-yl)ethoxy)benzyl)-1H-pyrazolo[3,4-d]pyrimidin-6-amine] | < 0.1 | ≥ 10
Cn1cc(Nc2ncc3cnn(Cc4ccccc4OCCO)c3n2)cn1 [Example 168, 2-(2-((6-((1-Methyl-1H-pyrazol-4-yl)amino)-1H-pyrazolo[3,4-d]pyrimidin-1-yl)methyl)phenoxy)ethanol] | < 0.1 | 1 to 10

Reference: US9242987B2, “Heterocyclyl pyrazolopyrimidine analogues as JAK inhibitors” (Cellzome Limited, priority 2009, dated 2016)
